“Also recorded” adds a separate entry of the source.

This assay deals with bacteria. Put plainly: Binding of targeting peptides to microorganisms (Table 3). The following applies: peptide binding in aqueous buffers that varied depending on peptide solubility; preferably 1x PBS.
Turning to “PF-500 (MGIFKEEKIKFIDCKGEEVILKIKIKDIKK; Peptide with targeting and/or antimicrobial activity)”, the “Target(s) (microorganisms bound by the targeting peptide)” value is reported as “S. mutans; also recorded: E. coli”.
On the same count and under the same terms, for “PF-501 (GSTAHKSPIGSTNNQWGMKKTPTD; Peptide with targeting and/or antimicrobial activity)” the value was “S. mutans”.
Same read-out and setting: next, “PF-502 (NKGKQMQDQTGKQPIVDNG; Peptide with targeting and/or antimicrobial activity)”: “S. mutans”; “PF-503 (VVTLKDIVAVIEDQGYDVQ; Peptide with targeting and/or antimicrobial activity)”: “S. mutans”; “PF-504 (ILSVELSTKTSASGS; Peptide with targeting and/or antimicrobial activity)”: “S. mutans; also recorded: E. coli”.
The same measure, in the same setting: next, “PF-505 (GYTKDPGTGI; Peptide with targeting and/or antimicrobial activity)”: “S. mutans”.
“PF-506 (SGRGFALIVVLFILLIIVGAACIR; Peptide with targeting and/or antimicrobial activity)”: the “Target(s) (microorganisms bound by the targeting peptide)” value is “S. mutans; also recorded: E. coli”.
Regarding “PF-507 (LALSIANLFKKKA; Peptide with targeting and/or antimicrobial activity)”, the “Target(s) (microorganisms bound by the targeting peptide)” value is “S. mutans; also recorded: E. coli”.
For the substance “PF-508 (VSTFGKVVKVVDEK; Peptide with targeting and/or antimicrobial activity)”, the “Target(s) (microorganisms bound by the targeting peptide)” value is listed as “S. mutans”.
Regarding “PF-509 (EAKVQAKGEQIACNNY; Peptide with targeting and/or antimicrobial activity)”, the “Target(s) (microorganisms bound by the targeting peptide)” value is “S. mutans; also recorded: B. subtilis; also recorded: E. coli”.
Still for that read-out and setting: next, “PF-510 (WYLYKKQSNQNDRGIPK; Peptide with targeting and/or antimicrobial activity)”: “S. mutans; also recorded: E. coli”.
On the same count and under the same terms, next, “PF-568 (TQAVQVKTAQAQQQ; Peptide with targeting and/or antimicrobial activity)”: “S. epidermidis”; “PF-570 (KKFPTEESHIQAVLEFKKLTEHPSG; Peptide with targeting and/or antimicrobial activity)”: “S. pneumoniae; also recorded: C. jeikeium”.
Turning to “PF-641 (SWKCHHLAIGGSWKCHHLAI; Peptide with targeting and/or antimicrobial activity)”, the “Target(s) (microorganism bound by the targeting peptide)” value was “S. epidermidis and M. luteus and E. coli and C. albicans and MRSA and E. faecalis and C. jeikeium and C. jejuni”.
As to “PF-648 (ARRYPAAGS; Peptide with targeting and/or antimicrobial activity)”, the “Target(s) (microorganism bound by the targeting peptide)” value was “S. mutans; also recorded: E. coli”.
Same read-out and setting: next, “PF-650 (IRSDQPGRQSRSSPRWPTGAGRHR; Peptide with targeting and/or antimicrobial activity)”: “Mycobacteria spp”; “PF-669 (RADRIESYPADGDRVITLWRNPYR; Peptide with targeting and/or antimicrobial activity)”: “Mycobacteria spp”; “PF-671 (TVSAFRTVH; Peptide with targeting and/or antimicrobial activity)”: “S. mutans; also recorded: E. coli”.
For the substance “PF-673 (VRRLRM; Peptide with targeting and/or antimicrobial activity)”, the “Target(s) (microorganism bound by the targeting peptide)” value is “S. mutans; also recorded: E. coli”.
Still for that read-out and setting: next, “PF-674 (DGCDSEPALTYR; Peptide with targeting and/or antimicrobial activity)”: “S. mutans; also recorded: E. coli”.
Same read-out and setting: for “PF-676 (AEYRGL; Peptide with targeting and/or antimicrobial activity)” the value was “S. mutans; also recorded: E. coli”; for “PF-678 (RDRRWTRRDMYDWLESARV; Peptide with targeting and/or antimicrobial activity)”, “Mycobacteria spp”; for “PF-679 (CRARFIRR; Peptide with targeting and/or antimicrobial activity)”, “S. mutans; also recorded: E. coli”.
For “PF-689 (SAPSG; Peptide with targeting and/or antimicrobial activity)”, the “Target(s) (microorganism bound by the targeting peptide)” value is reported as “S. mutans; also recorded: E. coli”.
Still for that read-out and setting: for “PF-701 (PRGAQSGHG; Peptide with targeting and/or antimicrobial activity)” the value was “S. mutans”; for “PF-703 (MTTVDNIVGLVIAVALMAFLFAALLFPEKF; Peptide with targeting and/or antimicrobial activity)”, “Mycobacteria spp”; for “PF-705 (GEEEGTVAD; Peptide with targeting and/or antimicrobial activity)”, “S. mutans; also recorded: E. coli”.
Still for that read-out and setting: for “PF-706 (LGYGAWIGCGLGLNGFHRID; Peptide with targeting and/or antimicrobial activity)” the value was “L. pneumophila”.
Still for that read-out and setting: for “PF-707 (IDPESIVTTNNKQDNVDEQ; Peptide with targeting and/or antimicrobial activity)” the value was “S. mutans; also recorded: E. coli”; for “PF-709 (NKKHSPMD; Peptide with targeting and/or antimicrobial activity)”, “S. mutans”; for “PF-711 (KTAGPTGTIYKTN; Peptide with targeting and/or antimicrobial activity)”, “S. mutans”.
Turning to “PF-712 (QIYRHVHKVQAKSANLRLY; Peptide with targeting and/or antimicrobial activity)”, the “Target(s) (microorganism bound by the targeting peptide)” value was “S. mutans; also recorded: E. coli”.
“PF-714 (FVVTQRMLRMYKK; Peptide with targeting and/or antimicrobial activity)”: the “Target(s) (microorganism bound by the targeting peptide)” value is listed as “L. pneumophila”.
Still for that read-out and setting: next, “PF-716 (HGENHHHKSDEKDNDSSEKKD; Peptide with targeting and/or antimicrobial activity)”: “S. mutans”; “PF-717 (PQSEVTFENIYAPKANGGGLYGI; Peptide with targeting and/or antimicrobial activity)”: “E. coli”; “PF-720 (SLDMGK; Peptide with targeting and/or antimicrobial activity)”: “S. mutans”.
The same measure, in the same setting: next, “PF-724 (CYRFLTPKRPTRIS; Peptide with targeting and/or antimicrobial activity)”: “L. pneumophila”; “PF-727 (AYARCRHDYPFTLGQMQTH; Peptide with targeting and/or antimicrobial activity)”: “S. mutans; also recorded: E. coli”.
The same measure, in the same setting: for “PF-728 (AIGQEQDRREYYYYSGYPYYY; Peptide with targeting and/or antimicrobial activity)” the value was “S. mutans; also recorded: E. coli”.
For the substance “PF-731 (RHKLIRLPLSESVFCFLNNPKI; Peptide with targeting and/or antimicrobial activity)”, the “Target(s) (microorganism bound by the targeting peptide)” value was “L. pneumophila”.
On the same count and under the same terms, next, “PF-732 (DRPSQTTHHTLSSSRITGPS; Peptide with targeting and/or antimicrobial activity)”: “E. coli”; “PF-733 (VISRQMGSEAVLELFIIM; Peptide with targeting and/or antimicrobial activity)”: “S. mutans; also recorded: E. coli”.
Same read-out and setting: next, “PF-735 (YDPLFPNDKN; Peptide with targeting and/or antimicrobial activity)”: “S. mutans; also recorded: E. coli”.
On the same count and under the same terms, for “PF-750 (AESSPAKTTA; Peptide with targeting and/or antimicrobial activity)” the value was “M. luteus; also recorded: C. jeikeium”.
As for “PF-751 (AESSPAQETT; Peptide with targeting and/or antimicrobial activity)”, the “Target(s) (microorganism bound by the targeting peptide)” value is recorded as “S. epidermidis; also recorded: E. coli; also recorded: C. albicans; also recorded: C. jeikeium”.
The same measure, in the same setting: for “PF-765 (YLYWEVEHKPIIAKRDAYYAQLRKQKEIEEGA; Peptide with targeting and/or antimicrobial activity)” the value was “S. epidermidis and M. luteus and E. coli and MRSA and E. faecalis and C. jeikeium”.
On the same count and under the same terms, for “PF-766 (DAYYAQLRKQKEIEEGA; Peptide with targeting and/or antimicrobial activity)” the value was “S. epidermidis and M. luteus and C. albicans and MRSA and E. faecalis and C. jeikeium”.
Still for that read-out and setting: next, “PF-767 (DGKQGEPVALKPTDN; Peptide with targeting and/or antimicrobial activity)”: “S. epidermidis and M. luteus and E. coli and MRSA and S. pneumoniae and E. faecalis and C. jeikeium”; “PF-768 (GFRGGKRGGARG; Peptide with targeting and/or antimicrobial activity)”: “S. epidermidis; also recorded: S. pneumoniae; also recorded: E. faecalis; also recorded: C. jeikeium”.
On to “PF-772 (TKESSS; Peptide with targeting and/or antimicrobial activity)”, for which the “Target(s) (microorganism bound by the targeting peptide)” value was “S. epidermidis and C. albicans and MRSA and S. pneumoniae and C. jeikeium”.

Source of the values: patent US9597407B2, “Targeted antimicrobial moieties” (C3 Jian, Inc., priority 2009, dated 2017).
